Results as given in PubChem BioAssay (NCI).
Values joined by “and” are separate entries in the source; they are usually repeats but may differ in a detail not shown here. Equal values may be shown once.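 The compound was tested at five concentrations on cells cultured in 96-well plates, with a 48-hour exposure period. GI50 = concentration required for 50% inhibition of growth. TGI denotes the concentration required for complete inhibition of growth.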

Key:
Assay in all cases: NCI-60 cell line screen, 48 h
[1] = system: PC-3 prostate
[2] = system: HT29 colon
[3] = system: NCI-H522 lung
[4] = system: HOP-62 NSCLC
[5] = system: MCF7 breast
[6] = system: SNB-75 CNS
[7] = system: SK-MEL-5 melanoma
[8] = system: MALME-3M melanoma
[9] = system: NCI-H23 lung
[10] = system: CCRF-CEM leukemia
[11] = system: HCT-116 colon
[12] = system: OVCAR-4 ovarian
[13] = system: SNB-19 CNS
[14] = system: A549 NSCLC
[15] = system: DU-145 prostate
[16] = system: OVCAR-3 ovarian
[17] = system: SK-MEL-28 melanoma
[18] = system: HL-60(TB) leukemia
[19] = system: ACHN renal
[20] = system: NCI-H226 lung
[21] = system: SF-268 CNS
[22] = system: MDA-MB-435
[23] = system: MOLT-4 leukemia
[24] = system: TK-10 renal
[25] = system: SK-MEL-2 melanoma
[26] = system: BT-549 breast
[27] = system: A498 renal
[28] = system: K-562 leukemia
[29] = system: NCI-H460 lung
[30] = system: CAKI-1 renal
[31] = system: T-47D breast
[32] = system: 786-0 renal
[33] = system: U251 CNS
[34] = system: MDA-N
[35] = system: UACC-62 melanoma
[36] = system: UACC-257 melanoma
[37] = system: OVCAR-5 ovarian
[38] = system: HCC-2998 colon
[39] = system: SN12C renal
[40] = system: IGROV1 ovarian
[41] = system: SW-620 colon
[42] = system: UO-31 renal
[43] = system: M14 melanoma
[44] = system: OVCAR-8 ovarian
[45] = system: SR leukemia
[46] = system: RPMI-8226 leukemia
[47] = system: MDA-MB-231 breast
[48] = system: HCT-15 colon
[49] = system: LOX IMVI melanoma
[50] = system: COLO 205 colon
[51] = system: SF-539 CNS
[52] = system: RXF 393 renal
[53] = system: HOP-92 NSCLC
[54] = system: NCI/ADR-RES ovarian
[55] = system: SF-295 CNS
[56] = system: KM12 colon
[57] = system: EKVX NSCLC

## Cc1ccc(C(=O)Nc2ccc(S(=O)(=O)O)c3cc(S(=O)(=O)O)cc(S(=O)(=O)O)c23)cc1NC(=O)Nc1cc(C(=O)Nc2ccc(S(=O)(=O)O)c3cc(S(=O)(=O)O)cc(S(=O)(=O)O)c23)ccc1C
[1]
  TGI: > 87.5 µM
[2]
  TGI: > 87.5 µM
[3]
  TGI: > 87.5 µM
[4]
  TGI: > 87.5 µM
[5]
  TGI: > 87.5 µM
[6]
  TGI: > 87.5 µM
[7]
  TGI: > 87.5 µM
[8]
  TGI: > 87.5 µM
[9]
  TGI: > 87.5 µM
[10]
  TGI: > 87.5 µM
[11]
  TGI: > 87.5 µM
[12]
  TGI: > 87.5 µM
[13]
  TGI: > 87.5 µM
[14]
  TGI: > 87.5 µM
[15]
  TGI: > 87.5 µM
[16]
  TGI: > 87.5 µM
[17]
  TGI: > 87.5 µM
[18]
  TGI: > 87.5 µM
[19]
  TGI: > 87.5 µM
[20]
  TGI: > 87.5 µM
[21]
  TGI: > 87.5 µM
[22]
  TGI: > 87.5 µM
[23]
  TGI: > 87.5 µM
[24]
  TGI: > 87.5 µM
[25]
  TGI: > 87.5 µM
[26]
  TGI: > 87.5 µM
[27]
  TGI: > 87.5 µM
[28]
  TGI: > 87.5 µM
[29]
  TGI: > 87.5 µM
[30]
  TGI: > 87.5 µM
[31]
  TGI: > 87.5 µM
[32]
  TGI: > 87.5 µM
[33]
  TGI: > 87.5 µM
[34]
  TGI: > 87.5 µM
[35]
  TGI: > 87.5 µM
[36]
  TGI: > 87.5 µM
[37]
  TGI: > 87.5 µM
[38]
  TGI: > 87.5 µM
[39]
  TGI: > 87.5 µM
[40]
  TGI: > 87.5 µM
[41]
  TGI: > 87.5 µM
[42]
  TGI: > 87.5 µM
[43]
  TGI: > 87.5 µM
[44]
  TGI: > 87.5 µM
[45]
  TGI: > 87.5 µM
[46]
  TGI: > 87.5 µM
[47]
  TGI: > 87.5 µM
[48]
  TGI: > 87.5 µM
[49]
  TGI: > 87.5 µM

## CCN(CC)CCCNc1nc2ccccc2[n+]([O-])n1
[1]
  TGI: > 100 µM
[2]
  TGI: > 100 µM
[50]
  TGI: > 100 µM
[3]
  TGI: > 100 µM
[5]
  TGI: > 100 µM
[6]
  TGI: > 100 µM
[7]
  TGI: > 100 µM
[51]
  TGI: > 100 µM
[8]
  TGI: > 100 µM
[9]
  TGI: > 100 µM
[10]
  TGI: > 100 µM
[11]
  TGI: > 100 µM
[12]
  TGI: > 100 µM
[13]
  TGI: > 100 µM
[52]
  TGI: > 100 µM
[14]
  TGI: > 100 µM
[15]
  TGI: > 100 µM
[16]
  TGI: > 100 µM
[17]
  TGI: > 100 µM
[18]
  TGI: > 100 µM
[19]
  TGI: > 100 µM
[20]
  TGI: > 100 µM
[21]
  TGI: > 100 µM
[22]
  TGI: > 100 µM
[23]
  TGI: > 100 µM
[24]
  TGI: > 100 µM
[25]
  TGI: > 100 µM
[26]
  TGI: > 100 µM
[27]
  TGI: > 100 µM
[53]
  TGI: > 100 µM
[28]
  TGI: > 100 µM
[29]
  TGI: > 100 µM
[30]
  TGI: > 100 µM
[31]
  TGI: > 100 µM
[32]
  TGI: > 100 µM
[33]
  TGI: > 100 µM
[34]
  TGI: > 100 µM
[35]
  TGI: > 100 µM
[54]
  TGI: > 100 µM
[36]
  TGI: > 100 µM
[37]
  TGI: > 100 µM
[55]
  TGI: > 100 µM
[38]
  TGI: > 100 µM
[39]
  TGI: > 100 µM
[40]
  TGI: > 100 µM
[56]
  TGI: > 100 µM
[41]
  TGI: > 100 µM
[42]
  TGI: > 100 µM
[43]
  TGI: > 100 µM
[44]
  TGI: > 100 µM
[45]
  TGI: > 100 µM
[46]
  TGI: > 100 µM
[47]
  TGI: > 100 µM
[48]
  TGI: > 100 µM

## CCNC(=O)CCC(C)[C@H]1CCC2C3C(C[C@H](OC(C)=O)[C@@]21C)[C@@]1(C)CCC2(C[C@H]1C[C@H]3OC(C)=O)OOC1(CCC(C)CC1)OO2 (some centres undefined)
[1]
  GI50: 0.716 µM and 2.06 µM
  TGI: > 100 µM and 11.4 µM
[2]
  GI50: 1.19 µM and 3.04 µM
[50]
  TGI: 3.18 µM and 3.2 µM
[3]
  TGI: 3.7 µM and 3.07 µM
[4]
  TGI: 3.56 µM and 2.09 µM
[5]
  TGI: > 100 µM
[6]
  TGI: 5.89 µM and 5.67 µM
[7]
  TGI: 4.43 µM and 3.09 µM
[51]
  TGI: 7.44 µM and 3.7 µM
[8]
  TGI: 6.1 µM and 3.92 µM
[9]
  TGI: 9.01 µM and 5.24 µM
[10]
  TGI: 3.2 µM and 3.94 µM
[11]
  TGI: 6.01 µM and 4.28 µM
[12]
  TGI: 4.09 µM and 3.17 µM
[13]
  TGI: > 100 µM and 24.4 µM
[52]
  GI50: 9.58 µM and 3.18 µM
  TGI: > 100 µM and 16.5 µM
[14]
  TGI: 8.28 µM and 4.02 µM
[15]
  TGI: 3.22 µM and 6.19 µM
[16]
  TGI: 3.62 µM
[17]
  TGI: > 100 µM and 17.4 µM
[18]
  TGI: 3.74 µM and 4.85 µM
[19]
  TGI: 4.65 µM and 3.13 µM
[20]
  TGI: 9.4 µM and 3.85 µM
[21]
  GI50: 4.22 µM and 1.59 µM
[22]
  TGI: 5.22 µM and 3.44 µM
[23]
  GI50: 0.658 µM and 1.72 µM
  TGI: 2.66 µM and 5.47 µM
[24]
  TGI: 6.74 µM and 5.13 µM
[25]
  TGI: 3.91 µM and 3.21 µM
[26]
  TGI: 5.94 µM and 3.2 µM
[27]
  GI50: > 100 µM and 25.6 µM
  TGI: > 100 µM
[53]
  TGI: 7.31 µM and 3.38 µM
[28]
  TGI: > 100 µM
[30]
  TGI: 3.93 µM and 2.24 µM
[31]
  TGI: 5.18 µM and 3.84 µM
[32]
  TGI: 7.66 µM and 3.44 µM
[33]
  TGI: 7.32 µM and 3.23 µM
[34]
  TGI: 10.3 µM and 3.92 µM
[35]
  TGI: 10.8 µM and 6.15 µM
[57]
  TGI: 2.69 µM
[36]
  TGI: > 100 µM and 96.3 µM
[37]
  TGI: > 100 µM
[38]
  TGI: 7.3 µM and 3.87 µM
[40]
  TGI: 3.66 µM and 2.87 µM
[56]
  TGI: 4.3 µM and 3.25 µM
[42]
  TGI: 2.38 µM and 2.71 µM
[43]
  TGI: 43 µM and 5.24 µM
[45]
  TGI: 3.32 µM
[46]
  GI50: 0.574 µM and 1.39 µM
  TGI: 2.64 µM and 3.81 µM
[47]
  TGI: 6.13 µM
[48]
  TGI: 20.4 µM and 4.62 µM
[49]
  TGI: 6.29 µM and 4.61 µM
